From ChEMBL document CHEMBL5532637, “Antimicrobial activity of natural and semi-synthetic carbazole alkaloids” (Eur J Med Chem, 2023) come the findings set out here.

Structures are written as SMILES. Values after ≈ are worked out from the molar mass of the structure shown. Bounds are passed on as bounds.

Experiment [1] relates to Escherichia coli. The experiment can be described thus: Antibacterial activity against Escherichia coli JW5503 harboring tolC mutant assessed as inhibition of bacterial growth incubated for 16 to 20 hrs by two-fold serial dilution assay. It is filed as functional. Conditions: time 16-20 hrs.
Experiment [2] concerns Staphylococcus aureus. The experiment can be described thus: Antibacterial activity against Staphylococcus aureus assessed as inhibition of bacterial growth. Format: functional, organism-based.
Experiment [3] relates to Pseudomonas aeruginosa. The experiment is described as follows: Antibacterial activity against Pseudomonas aeruginosa assessed as inhibition of bacterial growth by broth microdilution method. It is filed as functional.
Experiment [4] relates to Staphylococcus aureus. The experiment is described as follows: Antibacterial activity against Staphylococcus aureus assessed as inhibition of bacterial growth by broth microdilution method. It is filed as functional.
Experiment [5] deals with Escherichia coli. The experiment can be described thus: Antibacterial activity against Escherichia coli assessed as inhibition of bacterial growth by broth microdilution method. It is filed as functional.
The test system of experiment [6] is Klebsiella pneumoniae. The experiment is described as follows: Antibacterial activity against Klebsiella pneumoniae assessed as inhibition of bacterial growth by broth microdilution method. Format: functional.
For another experiment, the system named is Salmonella typhimurium. The experiment is described as follows: Antibacterial activity against Salmonella typhimurium TISTR 292 assessed as inhibition of bacterial growth by two-fold serial dilution method. The settings on record: Salmonella enterica. It is filed as functional, Salmonella enterica subsp. enterica serovar Typhimurium.
For experiment [7], the system named is Staphylococcus aureus. The experiment is described as follows: Antibacterial activity against methicillin-resistant Staphylococcus aureus SK1 assessed as inhibition of bacterial growth by two-fold serial dilution method. It is filed as functional.
In experiment [8] the test system is Staphylococcus aureus. The experiment can be described thus: Antibacterial activity against Staphylococcus aureus TISTR 1466 assessed as inhibition of bacterial growth by two-fold serial dilution method. It is filed as functional.
Experiment [9] relates to Escherichia coli. The experiment can be described thus: Antibacterial activity against Escherichia coli TISTR 780 assessed as inhibition of bacterial growth by two-fold serial dilution method. It is filed as functional.
In another experiment the test system is Micrococcus luteus. The experiment can be described thus: Antimicrobial activity against Sarcina lutea assessed as inhibition of microbial growth incubated for 24 hrs by two-fold serial dilution assay. It is filed as functional.
For experiment [10], the system named is Escherichia coli. The experiment is described as follows: Antimicrobial activity against Escherichia coli ATCC 25922 assessed as inhibition of microbial growth incubated for 24 hrs by two-fold serial dilution assay. Format: functional.
Experiment [11] deals with Pseudomonas aeruginosa. The experiment can be described thus: Antimicrobial activity against Pseudomonas aeruginosa ATCC 27953 assessed as inhibition of microbial growth incubated for 24 hrs by two-fold serial dilution assay. Format: functional.
In experiment [12] the test system is Klebsiella pneumoniae. The experiment can be described thus: Antimicrobial activity against Klebsiella pneumoniae ATCC 13883 assessed as inhibition of microbial growth incubated for 24 hrs by two-fold serial dilution assay. Format: functional.
The subject of experiment [13] is Candida albicans. The experiment is described as follows: Antimicrobial activity against Candida albicans NRRL Y-477 assessed as inhibition of microbial growth incubated for 48 hrs by two-fold serial dilution assay. Format: functional.
Another experiment deals with Priestia megaterium. The experiment is described as follows: Antimicrobial activity against Bacillus megaterium ATCC 9885 assessed as inhibition of microbial growth incubated for 24 hrs by two-fold serial dilution assay. It is filed as functional.
Experiment [14] has as its system Bacillus subtilis. The experiment can be described thus: Antimicrobial activity against Bacillus subtilis ATCC 6633 assessed as inhibition of microbial growth incubated for 24 hrs by two-fold serial dilution assay. It is filed as functional.
Experiment [15] concerns Staphylococcus aureus. The experiment can be described thus: Antimicrobial activity against Staphylococcus aureus ATCC 29213 assessed as inhibition of microbial growth incubated for 24 hrs by two-fold serial dilution assay. It is filed as functional.
A further experiment concerns Candida tropicalis. The experiment can be described thus: Antifungal activity against Candida tropicalis assessed as inhibition of fungal growth incubated for overnight by MTT based serial dilution method. It is filed as functional.
A further experiment has as its system Aspergillus fumigatus. The experiment is described as follows: Antifungal activity against Aspergillus fumigatus assessed as inhibition of fungal growth incubated for overnight by MTT based serial dilution method. Format: functional.
Experiment [16] relates to Candida albicans. The experiment is described as follows: Antifungal activity against Candida albicans assessed as inhibition of fungal growth incubated for overnight by MTT based serial dilution method. Format: functional.
For another experiment, the system named is Pasteurella multocida. The experiment is described as follows: Antibacterial activity against Pasteurella multocida assessed as inhibition of bacterial growth by agar well diffusion method. It is filed as functional.
A further experiment deals with Rhodotorula glutinis. The experiment is described as follows: Antifungal activity against Rhodotorula glutinis DSM 10134 assessed as inhibition of fungal growth incubated for 24 hrs by serial dilution method. Format: functional.
The subject of another experiment is Mucor hiemalis. The experiment is described as follows: Antifungal activity against Mucor hiemalis DSM 2656 assessed as inhibition of fungal growth incubated for 24 hrs by serial dilution method. It is filed as functional.
Experiment [17] deals with Schizosaccharomyces pombe. The experiment is described as follows: Antifungal activity against Schizosaccharomyces pombe DSM 70572 assessed as inhibition of fungal growth incubated for 24 hrs by serial dilution method. It is filed as functional.
For experiment [18], the system named is Mycolicibacterium smegmatis. The experiment can be described thus: Antibacterial activity against Mycobacterium smegmatis DSM ATCC 700084 assessed as inhibition of bacterial growth incubated for 24 hrs by serial dilution method. It is filed as functional.
Experiment [19] relates to Staphylococcus aureus. The experiment can be described thus: Antibacterial activity against Staphylococcus aureus DSM 346 assessed as inhibition of bacterial growth incubated for 24 hrs by serial dilution method. It is filed as functional.
The test system of experiment [20] is Bacillus subtilis. The experiment is described as follows: Antibacterial activity against Bacillus subtilis DSM 10 assessed as inhibition of bacterial growth incubated for 24 hrs by serial dilution method. It is filed as functional.
In experiment [21] the test system is Staphylococcus epidermidis. The experiment can be described thus: Antibacterial activity against Staphylococcus epidermidis assessed as zone of inhibition at 25 ug/ml. Format: functional. The settings on record: read-out: IZ.
Another experiment has as its system Proteus vulgaris. The experiment can be described thus: Antibacterial activity against Proteus vulgaris assessed as zone of inhibition at 25 ug/ml. It is filed as functional. The settings on record: read-out: IZ.
In experiment [22] the test system is Escherichia coli. The experiment is described as follows: Antibacterial activity against Escherichia coli assessed as zone of inhibition at 25 ug/ml. The settings on record: read-out: IZ. Format: functional.
The subject of experiment [23] is Staphylococcus aureus. The experiment can be described thus: Antibacterial activity against Staphylococcus aureus assessed as inhibition of bacterial growth incubated for 24 hrs by broth microdilution method. It is filed as functional.
The test system of a further experiment is Shigella flexneri. The experiment is described as follows: Antibacterial activity against Shigella flexneri assessed as inhibition of bacterial growth incubated for 24 hrs by broth microdilution method. Format: functional.
The next experiment has as its system Vibrio cholerae. The experiment can be described thus: Antibacterial activity against Vibrio cholerae assessed as inhibition of bacterial growth incubated for 24 hrs by broth microdilution method. Format: functional.
Experiment [24] concerns Staphylococcus aureus. The experiment can be described thus: Antibacterial activity against Staphylococcus aureus assessed as inhibition of bacterial growth by broth dilution method. Format: functional.

For the compound `NC1CCCc2c1[nH]c1ccc(Cl)cc21` (configuration not stated), the MIC in the experiment with Escherichia coli [1] turned out to be 37 µg/mL (≈ 168 µM).

With `COc1cc2[nH]c3c4c(c(C)cc3c2cc1OC)OC(C)(C)C=C4`, in the experiment on Staphylococcus aureus [2], the IC50 is 20.9 µM.

For `CC(C)=CCCC1(C)C=Cc2c(c(C)cc3c2[nH]c2cc(O)ccc23)O1` (configuration not stated), the MIC90 in the experiment on Pseudomonas aeruginosa [3] is > 100 µg/mL; with Staphylococcus aureus [4], 3.12 µg/mL (≈ 8.98 µM); in the experiment with Escherichia coli [5] it was > 100 µg/mL; in the experiment with Klebsiella pneumoniae [6] it was 3.12 µg/mL (≈ 8.98 µM).

Turning to `CC1(C)Oc2ccc3[nH]c4cc(O)c(C=O)cc4c3c2[C@@H](O)[C@H]1O`, the MIC in the experiment with Salmonella typhimurium, in the experiment with Staphylococcus aureus [7], in the experiment with Staphylococcus aureus [8] and with Escherichia coli [9] was 64 µg/mL (≈ 196 µM) throughout.

In the case of `O=C(CCn1c2c(c3ccccc31)CCCC2)N1C[C@H]2C[C@H](C1)c1cccc(=O)n1C2`, the MIC with Escherichia coli [1] stood at 42.1 µg/mL (≈ 101 µM).

As to `O=C(NN1C(=O)C(Cl)=C(Cl)C1=O)c1ccc(-n2c3c(c4ccccc42)CCCC3)cc1`, the minimum inhibitory concentration (MIC) in the experiment on Micrococcus luteus, with Escherichia coli [10], in the experiment with Pseudomonas aeruginosa [11], with Klebsiella pneumoniae [12], in the experiment with Candida albicans [13] and in the experiment with Priestia megaterium was 25 µg/mL throughout. The MIC with Bacillus subtilis [14] and with Staphylococcus aureus [15] was 25 µg/mL each time.

For the compound `COCn1c2c(c3cccc(C)c31)Cc1cocc1C2`, the MIC in the experiment on Candida tropicalis, with Aspergillus fumigatus and with Candida albicans [16] was 7.81 µg/mL (≈ 29.2 µM) in each case.

With `C/C(=N/Nc1ccc([N+](=O)[O-])cc1[N+](=O)[O-])C1CCCc2c1n(C)c1c([N+](=O)[O-])cc([N+](=O)[O-])cc21` (configuration not stated), the MIC in the experiment with Pasteurella multocida was determined as 4.5 µg/mL (≈ 9.05 µM).

As to `COCn1c2c(c3cc(F)ccc31)Cc1cocc1C2`, the MIC in the experiment on Candida tropicalis, in the experiment on Aspergillus fumigatus and in the experiment on Candida albicans [16] was 7.81 µg/mL (≈ 28.8 µM) each time.

Regarding `Clc1ccc2[nH]c3c(c2c1)CCCC31CCCn2ccnc21` (configuration not stated), the minimum inhibitory concentration (MIC) (in the experiment with Rhodotorula glutinis; with Mucor hiemalis; in experiment [17]; in experiment [18]; in the experiment on Staphylococcus aureus [19]; in the experiment on Bacillus subtilis [20]) was 53.2 µM (≈ 16.6 µg/mL) throughout.

As for `O=C(NN1C(=O)c2ccccc2C1=O)c1ccc(-n2c3c(c4ccccc42)CCCC3)cc1`, the MIC in the experiment on Micrococcus luteus, with Escherichia coli [10], with Pseudomonas aeruginosa [11], in the experiment with Klebsiella pneumoniae [12], in the experiment on Candida albicans [13] and in the experiment with Priestia megaterium was 25 µg/mL in each case. For the same compound, the MIC in the experiment on Bacillus subtilis [14] and in the experiment with Staphylococcus aureus [15] was 25 µg/mL in each case.

As for `COC(=O)c1cc(O)c2[nH]c3ccc4c(c3c2c1)C=CC(C)(C)O4`, the MIC in the experiment on Salmonella typhimurium, with Staphylococcus aureus [7], in the experiment with Staphylococcus aureus [8] and in the experiment on Escherichia coli [9] was 64 µg/mL (≈ 198 µM) in each case.

As to `Cc1ccc2[nH]c3c(c2c1)CC/C(=C\c1ccc(Br)cc1)C3=O`, the zone of inhibition at 25 µg/mL (in experiment [21]; with Proteus vulgaris; in the experiment with Escherichia coli [22]) was 15 mm each time.

For `COc1cc(C)c(CC=C(C)C)c2c1[nH]c1ccccc12`, the minimal inhibitory concentration (MIC) with Staphylococcus aureus [23], in the experiment with Shigella flexneri and with Vibrio cholerae was 32 µg/mL (≈ 115 µM) throughout.

Take `NCC1CCCc2c1[nH]c1ccc(Cl)cc21` (configuration not stated): in the experiment with Escherichia coli [1], the minimum inhibitory concentration (MIC) stood at 21.1 µg/mL (≈ 89.9 µM).

For the compound `CC(C)=CCc1c(O)ccc2[nH]c3cc(O)c(C=O)cc3c12`, the minimum inhibitory concentration (MIC) with Salmonella typhimurium, with Staphylococcus aureus [7], in the experiment on Staphylococcus aureus [8] and with Escherichia coli [9] was 64 µg/mL (≈ 217 µM) in each case.

Consider `CC(C)=CCC[C@@]1(C)C=Cc2c(ccc3c2[nH]c2ccc(C=O)cc23)O1`, for which the IC50 in the experiment on Staphylococcus aureus [2] turned out to be 11.7 µM.

For the compound `COc1cc2c3c([nH]c2cc1C)C(=O)C=C(C)C3=O`, in the experiment with Staphylococcus aureus [24], the MIC turned out to be 50 µg/mL (≈ 196 µM).
